# Target: T1, purified human HDAC6 (Homo sapiens, UniProt Q9UBN7)
# T1 construct: purchased BPS Bioscience 5006
# T1 sequence (Q9UBN7 1-1215): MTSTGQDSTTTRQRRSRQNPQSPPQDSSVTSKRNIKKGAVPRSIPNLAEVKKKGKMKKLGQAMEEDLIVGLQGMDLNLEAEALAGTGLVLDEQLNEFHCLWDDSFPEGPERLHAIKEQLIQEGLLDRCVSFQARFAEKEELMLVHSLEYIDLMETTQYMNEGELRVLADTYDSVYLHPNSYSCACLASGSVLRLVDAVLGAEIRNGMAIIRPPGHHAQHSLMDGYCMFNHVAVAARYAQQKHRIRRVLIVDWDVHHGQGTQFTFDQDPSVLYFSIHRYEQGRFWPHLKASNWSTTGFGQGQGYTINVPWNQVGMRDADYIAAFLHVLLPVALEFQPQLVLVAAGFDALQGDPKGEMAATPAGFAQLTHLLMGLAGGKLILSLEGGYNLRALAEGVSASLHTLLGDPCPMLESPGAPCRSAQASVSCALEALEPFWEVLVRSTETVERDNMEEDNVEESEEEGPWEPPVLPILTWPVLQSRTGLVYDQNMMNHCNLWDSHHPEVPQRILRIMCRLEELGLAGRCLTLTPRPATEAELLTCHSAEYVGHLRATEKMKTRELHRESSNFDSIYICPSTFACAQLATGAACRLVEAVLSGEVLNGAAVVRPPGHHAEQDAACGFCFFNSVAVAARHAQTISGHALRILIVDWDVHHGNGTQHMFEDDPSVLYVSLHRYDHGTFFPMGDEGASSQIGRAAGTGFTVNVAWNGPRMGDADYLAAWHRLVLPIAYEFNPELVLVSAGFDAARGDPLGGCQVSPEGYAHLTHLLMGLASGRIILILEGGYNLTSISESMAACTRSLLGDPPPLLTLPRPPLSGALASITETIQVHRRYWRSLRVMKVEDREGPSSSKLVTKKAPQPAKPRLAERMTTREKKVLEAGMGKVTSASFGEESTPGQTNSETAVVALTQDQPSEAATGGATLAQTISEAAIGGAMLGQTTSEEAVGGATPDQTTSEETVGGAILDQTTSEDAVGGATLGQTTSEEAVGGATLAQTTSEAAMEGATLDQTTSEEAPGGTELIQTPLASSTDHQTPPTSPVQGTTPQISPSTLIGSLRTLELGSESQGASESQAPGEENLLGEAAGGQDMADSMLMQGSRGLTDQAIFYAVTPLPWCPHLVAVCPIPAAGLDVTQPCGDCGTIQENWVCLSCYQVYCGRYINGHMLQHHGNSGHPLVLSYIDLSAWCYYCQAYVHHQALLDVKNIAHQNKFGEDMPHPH
# Assay: HDAC6 Enzyme Assay
# Type: biochemical
# Conditions: compound concentration 0.37 μM, read-out: Percent Inhibition
# In short: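 Purified human HDAC6 incubated 1 h at 30° C with Ac-Arg-Gly-Lys(Ac)-AMC peptide plus compound or DMSO; stopped with trichostatin A. Deacetylated product trypsin-digested, released AMC read by fluorescence (Ex 340/Em 460 nm). Percent inhibition at one concentration or IC50 from curves relative to DMSO controls.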
row,SMILES,inhibition at 0.37 µM [%]
1,"O=C(NO)c1ccc2c(CO)cn(Cc3ccccc3)c(=O)c2c1 [Compound I-337, 2-benzyl-N-hydroxy-4-(hydroxymethyl)-1-oxo-1,2-dihydroisoquinoline-7-carboxamide]",57.7
2,"O=C(NO)c1ccc2c(=O)[nH]c(-c3ccc4ccccc4c3)nc2c1 [Compound I-405, N-hydroxy-2-(2-naphthyl)-4-oxo-3,4-dihydroquinazoline-7-carboxamide]",92
3,"O=C(NO)c1ccc2ncn(CCc3cccc(-c4cc5ccccc5s4)c3)c(=O)c2c1 [Compound I-302, 3-{2-[3-(1-benzothien-2-yl)phenyl]ethyl}-N-hydroxy-4-oxo-3,4-dihydroquinazoline-6-carboxamide]",83.5
4,"COc1ccc(-c2cccc(CCn3cnc4ccc(C(=O)NO)cc4c3=O)c2)cn1 [Compound I-329, N-hydroxy-3-{2-[3-(6-methoxypyridin-3-yl)phenyl]ethyl}-4-oxo-3,4-dihydroquinazoline-6-carboxamide]",92.6
5,"Cc1ccccc1-c1cccc(CCn2cnc3ccc(C(=O)NO)cc3c2=O)c1 [Compound I-296, N-hydroxy-3-[2-(2′-methylbiphenyl-3-yl)ethyl]-4-oxo-3,4-dihydroquinazoline-6-carboxamide]",94.2
6,"Nc1cccc(-c2cccc(CCn3cnc4ccc(C(=O)NO)cc4c3=O)c2)c1 [Compound I-322, 3-[2-(3′-aminobiphenyl-3-yl)ethyl]-N-hydroxy-4-oxo-3,4-dihydroquinazoline-6-carboxamide]",76.1
7,"Cc1cn(Cc2ccccc2)c(=O)c2cc(C(=O)NO)ccc12 [Compound I-400, 2-benzyl-N-hydroxy-4-methyl-1-oxo-1,2-dihydroisoquinoline-7-carboxamide]",73.9
8,"O=C(NO)c1ccc2ncn(CCc3cccc(-c4csc5ccccc45)c3)c(=O)c2c1 [Compound I-318, 3-{2-[3-(1-benzothien-3-yl)phenyl]ethyl}-N-hydroxy-4-oxo-3,4-dihydroquinazoline-6-carboxamide]",86.4
9,"O=C(NO)c1ccc2ncn(CCc3cccc(-c4cccc(Cl)c4)c3)c(=O)c2c1 [Compound I-316, 3-[2-(3′-chlorobiphenyl-3-yl)ethyl]-N-hydroxy-4-oxo-3,4-dihydroquinazoline-6-carboxamide]",87.7

# Same assay, conditions: compound concentration 0.412 μM, read-out: Percent Inhibition
row,SMILES,inhibition at 0.412 µM [%]
1,"O=C(NO)c1ccc2ccn(Cc3c(F)c(F)c(F)c(F)c3F)c(=O)c2c1 [Compound I-65, N-hydroxy-1-oxo-2-(pentafluorobenzyl)-1,2-dihydroisoquinoline-7-carboxamide]",93
2,"Cc1cccc(Cn2ccc3ccc(C(=O)NO)cc3c2=O)c1 [Compound I-120, N-hydroxy-2-(3-methylbenzyl)-1-oxo-1,2-dihydroisoquinoline-7-carboxamide]",94.8
3,"O=C(NO)c1ccc2c(=O)n(Cc3ccccc3)c(NCc3ccc(Cl)cc3)nc2c1 [Compound I-238, 3-benzyl-2-[(4-chlorobenzyl)amino]-N-hydroxy-4-oxo-3,4-dihydroquinazoline-7-carboxamide]",86.2
4,"CC1(C)CCC(C)(C)c2cc(Cn3cnc4ccc(C(=O)NO)cc4c3=O)ccc21 [Compound I-112, N-hydroxy-4-oxo-3-[(5,5,8,8-tetramethyl-5,6,7,8-tetrahydronaphthalen-2-yl)methyl]-3,4-dihydroquinazoline-6-carboxamide]",95.2
5,"O=C(NO)c1ccc2nc[nH]c(=O)c2c1 [Compound I-283, N-hydroxy-4-oxo-3,4-dihydroquinazoline-6-carboxamide]",63.3
6,"COc1ccc(CCCn2ccc3ccc(C(=O)NO)cc3c2=O)cc1 [Compound I-140, N-hydroxy-2-[3-(4-methoxyphenyl)propyl]-1-oxo-1,2-dihydroisoquinoline-7-carboxamide]",96.5
7,"O=C(NO)c1ccc2ccn(CCCc3ccc(Cl)cc3)c(=O)c2c1 [Compound I-131, 2-[3-(4-chlorophenyl)propyl]-N-hydroxy-1-oxo-1,2-dihydroisoquinoline-7-carboxamide]",96.9
8,"COc1ccc(OCCCn2ccc3ccc(C(=O)NO)cc3c2=O)cc1 [Compound I-3, N-hydroxy-2-[3-(4-methoxyphenoxy)propyl]-1-oxo-1,2-dihydroisoquinoline-7-carboxamide]",95.8
9,"O=C(NO)c1ccc2ccn(CCOc3cc(Cl)cc(Cl)c3)c(=O)c2c1 [Compound I-99, 2-[2-(3,5-dichlorophenoxy)ethyl]-N-hydroxy-1-oxo-1,2-dihydroisoquinoline-7-carboxamide]",93
10,"Cc1cccc(OCc2nc3cc(C(=O)NO)ccc3c(=O)[nH]2)c1 [Compound I-107, N-hydroxy-2-[(3-methylphenoxy)methyl]-4-oxo-3,4-dihydroquinazoline-7-carboxamide]",85.2
11,"O=C(NO)c1ccc2ncn(Cc3nc4ccccc4s3)c(=O)c2c1 [Compound I-67, 3-(1,3-benzothiazol-2-ylmethyl)-N-hydroxy-4-oxo-3,4-dihydroquinazoline-6-carboxamide]",49.2
12,"CC(C)c1nc2cc(C(=O)NO)ccc2c(=O)[nH]1 [Compound I-214, N-hydroxy-2-isopropyl-4-oxo-3,4-dihydroquinazoline-7-carboxamide]",65.8
13,"O=C(NO)c1ccc2ccn(Cc3cccc4cccnc34)c(=O)c2c1 [Compound I-83, N-hydroxy-1-oxo-2-(quinolin-8-ylmethyl)-1,2-dihydroisoquinoline-7-carboxamide]",89.7
14,"CCOCCn1cnc2ccc(C(=O)NO)cc2c1=O [Compound I-226, 3-(2-ethoxyethyl)-N-hydroxy-4-oxo-3,4-dihydroquinazoline-6-carboxamide]",84.5
15,"Cc1ccn(CCn2ccc3ccc(C(=O)NO)cc3c2=O)n1 [Compound I-10, N-hydroxy-2-[2-(3-methyl-1H-pyrazol-1-yl)ethyl]-1-oxo-1,2-dihydroisoquinoline-7-carboxamide]",84.5
16,"O=C(NO)c1ccc2c(=O)n(Cc3ccc(C(F)(F)F)cc3)c(-c3ccccc3)nc2c1 [Compound I-73, N-hydroxy-4-oxo-2-phenyl-3-[4-(trifluoromethyl)benzyl]-3,4-dihydroquinazoline-7-carboxamide]",87.7
17,"O=C(NO)c1ccc2ccn(CCN3CCCCC3)c(=O)c2c1 [Compound I-277, N-hydroxy-1-oxo-2-(2-piperidin-1-ylethyl)-1,2-dihydroisoquinoline-7-carboxamide]",71.2
18,"O=C(NO)c1ccc2ccn(Cc3csc4ccc(Cl)cc34)c(=O)c2c1 [Compound I-211, 2-[(5-chloro-1-benzothien-3-yl)methyl]-N-hydroxy-1-oxo-1,2-dihydroisoquinoline-7-carboxamide]",92.3
19,"O=C(NO)c1ccc2ccn(Cc3ccccn3)c(=O)c2c1 [Compound I-279, N-hydroxy-1-oxo-2-(pyridin-2-ylmethyl)-1,2-dihydroisoquinoline-7-carboxamide]",87.9
20,"O=C(NO)c1ccc2c(=O)[nH]c(COc3ccc(-n4ccnc4)cc3)nc2c1 [Compound I-210, N-hydroxy-2-{[4-(1H-imidazol-1-yl)phenoxy]methyl}-4-oxo-3,4-dihydroquinazoline-7-carboxamide]",80.7
21,"O=C(NO)c1ccc2ncn(Cc3cccc(OC(F)(F)F)c3)c(=O)c2c1 [Compound I-55, N-hydroxy-4-oxo-3-[3-(trifluoromethoxy)benzyl]-3,4-dihydroquinazoline-6-carboxamide]",93.9
22,"CC1(C)CCC(C)(C)c2cc(Cn3ccc4ccc(C(=O)NO)cc4c3=O)ccc21 [Compound I-88, N-hydroxy-1-oxo-2-[(5,5,8,8-tetramethyl-5,6,7,8-tetrahydronaphthalen-2-yl)methyl]-1,2-dihydroisoquinoline-7-carboxamide]",90
23,"O=C(NO)c1ccc2ncn(Cc3cccc(-c4ccncc4)c3)c(=O)c2c1 [Compound I-128, N-hydroxy-4-oxo-3-(3-pyridin-4-ylbenzyl)-3,4-dihydroquinazoline-6-carboxamide]",95.9
